SMILES strings stand for the structures.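 Dose response: 5 concentrations. Exposure: 48 h. Format: 96-well plates. Endpoint: linear interpolation; highest concentration if not reached. GI50 = concentration required for 50% inhibition of growth.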 The source made the active and inactive calls. No stated cut-off is given here; in the data, active = GI50 up to about 1.1 µM and inactive = higher.

Test systems include KM12; NCI-H23; IGROV-1; BT-549; K562; SW-620; HCT-15; T47D; EKVX; HOP-62; HOP-92; NCI-H226; U-251; NCI-H522; MDA-MB-435; UO-31; RXF 393; DU-145; UACC-257; HL-60.
What all share (assay): NCI tumour cell line growth inhibition, 48 h

As to `NS(=O)(=O)c1ccc(/N=N/c2nc3nc(O)nc(O)c3[nH]2)cc1`, the GI50 in the experiment with KM12, in the experiment on NCI-H23, with IGROV-1, with BT-549, in the experiment on K562 and in the experiment on SW-620 was > 100 µM (inactive) each time. Besides, the GI50 is more than 100 µM in the experiment with HCT-15; > 100 µM (inactive) in the experiment with T47D; > 100 µM (inactive) in the experiment with EKVX; > 100 µM (inactive) in the experiment on HOP-62; > 100 µM (inactive) in the experiment with HOP-92; > 100 µM (inactive) in the experiment on NCI-H226. The GI50 with U-251, with NCI-H522, in the experiment on MDA-MB-435, with UO-31, in the experiment on RXF 393 and with DU-145 was > 100 µM (inactive) throughout. Also, the GI50 in the experiment with UACC-257 was > 100 µM (inactive).

Consider `Oc1[nH]c(Nc2ccc(F)c(Cl)c2)nc2ncnc1-2`, for which the GI50 in the experiment on KM12, in the experiment with NCI-H23, in the experiment with IGROV-1, in the experiment with BT-549, in the experiment with HL-60 and in the experiment on SW-620 was > 100 µM (inactive) in each case. For the same compound, the GI50 in the experiment on HCT-15 is more than 100 µM; with T47D, > 100 µM (inactive); with EKVX, > 100 µM (inactive); with HOP-62 it was > 100 µM (inactive); in the experiment with HOP-92, > 100 µM (inactive); in the experiment with NCI-H226, > 100 µM (inactive). The GI50 in the experiment with U-251 was 99.1 µM (inactive); in the experiment on NCI-H522, > 100 µM (inactive); in the experiment on MDA-MB-435 it was > 100 µM (inactive); in the experiment with UO-31, > 100 µM (inactive); with DU-145, > 100 µM (inactive); with UACC-257, > 100 µM (inactive).

Regarding `Cc1ccc(C(=O)Oc2ccc(/C=C3\CCC/C(=C\c4ccc(OC(=O)c5ccc(C)cc5)cc4)C3=O)cc2)cc1`, the GI50 with KM12, in the experiment with NCI-H23, in the experiment with IGROV-1, with BT-549, in the experiment on HL-60 and in the experiment with SW-620 was > 100 µM (inactive) in each case. The GI50 is more than 100 µM with HCT-15; > 100 µM (inactive) in the experiment on T47D; > 100 µM (inactive) with EKVX; > 100 µM (inactive) in the experiment with HOP-62; > 100 µM (inactive) with HOP-92; > 100 µM (inactive) in the experiment with U-251. Further, the GI50 in the experiment on NCI-H522, with MDA-MB-435, in the experiment with UO-31, in the experiment with DU-145 and in the experiment on UACC-257 was > 100 µM (inactive) in each case.

Regarding `CCOC(=O)NC(Nc1ccc(C(=O)OCC)cc1)(C(F)(F)F)C(F)(F)F`, the GI50 in the experiment on KM12 is 78.9 µM (inactive); in the experiment with NCI-H23, > 100 µM (inactive); with IGROV-1, 56.8 µM (inactive); with BT-549, > 100 µM (inactive); with HL-60, > 100 µM (inactive); in the experiment with K562, 9.29 µM (inactive). For the same compound, the GI50 in the experiment on SW-620 was 61.4 µM (inactive); in the experiment on HCT-15 it was 42.9 µM; in the experiment on T47D, 49 µM (inactive); in the experiment on HOP-62, > 100 µM (inactive); in the experiment with HOP-92, > 100 µM (inactive); in the experiment with NCI-H226, > 100 µM (inactive). The GI50 with U-251 was 68.1 µM (inactive); in the experiment on NCI-H522, > 100 µM (inactive); with MDA-MB-435, 51.2 µM (inactive); in the experiment with UO-31, 42.5 µM (inactive); in the experiment on DU-145, > 100 µM (inactive).
